Laboratory results published in patent US6683027B2, “Herbicidal mixtures” (BASF Aktienegesellschaft, priority 2000, dated 2004).

Legend:
Setaria viridis = experiment: greenhouse pre-emergence trial, percent damage vs untreated control 21 days after treatment; type: in vivo; details: SETVI, Example 1A
Galium aparine = experiment: greenhouse post-emergence trial, percent damage vs untreated control 21 days after treatment; type: in vivo; details: GALAP
Description: The trials are carried out under greenhouse conditions in pre- and post-emergence applications. The plant seeds are sown in pots containing a loamy sand soil (0.5 l). The herbicides are applied as single treatments, or in a combination comprising a compound of formula I and compound selected from group (2) as defined above, before or after emergence of weeds and crop. The herbicidal performance is assessed as percent damage in comparison to the untreated control plants. The assessment is done 21 days after the treatment. Wheat and barley are treated at the 3-4 leaf stage, the broad-leaf weeds at the 2-4 leaf stage and annual grasses at the 2-3 leaf stage.

## FC(F)(F)c1ccc(-c2nccc(Oc3cccc(C(F)(F)F)c3)n2)cc1 [Compound A, 4-(3-trifluoromethylphenoxy)-2-(4-trifluoromethylphenyl)-pyrimidine]
Setaria viridis; 3.75 g/ha
  Compound A alone (% control): 0%
Setaria viridis; 7.5 g/ha
  Compound A alone (% control): 35%
Galium aparine; 3.75 g/ha, Example 5
  Compound A alone (% control): 10%
Galium aparine; 3.75 g/ha, Example 10
  Compound A alone (% control): 13%
Galium aparine; 3.75 g/ha, Example 14
  Compound A alone (% control): 40%
Galium aparine; 7.5 g/ha, Example 5
  Compound A alone (% control): 23%
Galium aparine; 15 g/ha, Example 10
  Compound A alone (% control): 20%
Galium aparine; 15 g/ha, Example 12
  Compound A alone (% control): 0%
Galium aparine; 30 g/ha, Example 12
  Compound A alone (% control): 20%
Galium aparine; 60 g/ha, Example 10
  Compound A alone (% control): 55%
